Laboratory results as given in ChEMBL document CHEMBL4831531, “Mangostanin Derivatives as Novel and Orally Active Phosphodiesterase 4 Inhibitors for the Treatment of Idiopathic Pulmonary Fibrosis with Improved Safety” (J Med Chem, 2021).
Active and inactive are the calls of the source. The calls are words filed in the database; no cut-off is given here.

Experiments:
[1] = Toxicity in mouse assessed as change in body weight at 1.5 g/Kg, po; conditions: in vivo, 1500 mg/kg
A549 [2] = assay: Anti-idiopathic pulmonary fibrotic activity in human A549 cells assessed as reduction in TGF-beta-induced fibronectin expression measured after 48 hrs by Western blot analysis; format: functional, cell-based; conditions: dose 10-20 µM
[3] = Half life in Sprague-Dawley rat at 5 mg/kg, po; format: ADME, organism-based; conditions: in vivo
A549 [4] = assay: Anti-idiopathic pulmonary fibrotic activity in human A549 cells assessed as reduction in TGF-beta-induced vimentin expression measured after 48 hrs by Western blot analysis; format: functional, cell-based; conditions: dose 10-20 µM
Rattus norvegicus [5] = assay: Anti-idiopathic pulmonary fibrotic activity in bleomycin-induced Sprague-Dawley rat model assessed as prevention of structural damage of lungs at 10 mg/kg, po treated for 28 consecutive days by Hematoxylin and eosin staining based assay relative to control; format: functional, organism-based
Rattus norvegicus [6] = assay: Anti-idiopathic pulmonary fibrotic activity in bleomycin-induced Sprague-Dawley rat model assessed as decrease in alpha-smooth muscle actin protein expression of lungs at 10 mg/kg, po treated for 28 consecutive days by Western blot analysis; format: functional, organism-based
[7] = molecular target: Voltage-gated inwardly rectifying potassium channel KCNH2 (Homo sapiens, UniProt Q12809); assay: Inhibition of human ERG
[8] = Metabolic stability in rat liver microsomes assessed as half life; format: ADME, Microsome
[9] = Cmax in Sprague-Dawley rat at 5 mg/kg, po; format: ADME, organism-based; parameters: route oral, dose 5 mg/kg; conditions: in vivo
Rattus norvegicus [10] = assay: Anti-idiopathic pulmonary fibrotic activity in bleomycin-induced Sprague-Dawley rat model assessed as inhibition of collagen deposition around trachea and cell hyperplasia at 10 mg/kg, po treated for 28 consecutive days by Hematoxylin and eosin staining based assay relative to control; format: functional
[11] = AUC (0 to infinity) in Sprague-Dawley rat at 10 mg/kg, po; format: ADME, organism-based; parameters: route oral, time infinity, dose 10 mg/kg; conditions: in vivo
[12] = molecular target: High affinity cAMP-specific and IBMX-insensitive 3',5'-cyclic phosphodiesterase 8A (Homo sapiens, UniProt O60658); assay: Inhibition of PDE8A1 (480-828) (unknown origin) expressed in Escherichia coli BL21 assessed as using [3H]-cAMP as substrate measured for 15 mins by liquid scintillation counting analysis
Rattus norvegicus [13] = assay: Anti-idiopathic pulmonary fibrotic activity in bleomycin-induced Sprague-Dawley rat model assessed as reversal of peak expiratory flow at 10 mg/kg, po treated for 28 consecutive days relative to control; format: functional, organism-based
[14] = AUC (0 to t) in Sprague-Dawley rat at 10 mg/kg, po; format: ADME, organism-based; parameters: dose 10 mg/kg; conditions: in vivo
[15] = Tmax in Sprague-Dawley rat at 10 mg/kg, po; format: ADME, organism-based; conditions: in vivo
[16] = AUC (0 to infinity) in Sprague-Dawley rat at 5 mg/kg, po; format: ADME, organism-based; parameters: route oral, time infinity, dose 5 mg/kg; conditions: in vivo
[17] = Half life in Sprague-Dawley rat at10 mg/kg, po; format: ADME, organism-based; conditions: in vivo, dose 10 mg/kg
[18] = molecular target: cGMP-specific 3',5'-cyclic phosphodiesterase (Homo sapiens, UniProt O76074); assay: Inhibition of PDE5A1 (535-860) (unknown origin) expressed in Escherichia coli BL21 assessed as using […] as substrate measured for 15 mins by liquid scintillation counting analysis
Cytochrome P450 3A4 = Cytochrome P450 3A4 (Homo sapiens, UniProt P08684); assay: Inhibition of human hepatic CYP3A4; format: ADME, tissue-based, Liver
Cytochrome P450 3A4, sequence (P08684 whole entry): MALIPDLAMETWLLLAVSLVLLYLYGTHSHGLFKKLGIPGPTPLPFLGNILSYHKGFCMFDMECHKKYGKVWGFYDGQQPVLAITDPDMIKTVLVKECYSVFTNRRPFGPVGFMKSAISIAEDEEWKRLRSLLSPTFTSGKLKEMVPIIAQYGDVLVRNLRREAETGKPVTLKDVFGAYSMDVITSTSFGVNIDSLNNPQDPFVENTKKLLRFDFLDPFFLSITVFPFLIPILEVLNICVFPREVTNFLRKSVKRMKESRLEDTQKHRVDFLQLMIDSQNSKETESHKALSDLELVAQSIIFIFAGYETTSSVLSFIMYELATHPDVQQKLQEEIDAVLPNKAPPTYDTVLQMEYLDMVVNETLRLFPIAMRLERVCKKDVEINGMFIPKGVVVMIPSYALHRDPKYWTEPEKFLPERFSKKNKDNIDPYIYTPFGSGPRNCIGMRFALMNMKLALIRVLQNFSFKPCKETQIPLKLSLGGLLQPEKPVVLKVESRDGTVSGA

A549 [19] = assay: Anti-idiopathic pulmonary fibrotic activity in human A549 cells assessed as reduction in TGF-beta-induced N-cadherin expression measured after 48 hrs by Western blot analysis; format: functional, cell-based; conditions: dose 10-20 µM
[20] = molecular target: cGMP-dependent 3',5'-cyclic phosphodiesterase (Homo sapiens, UniProt O00408); assay: Inhibition of PDE2A (580-919) (unknown origin) expressed in Escherichia coli BL21 assessed as using [3H]-cAMP as substrate measured for 15 mins by liquid scintillation counting analysis
cGMP-dependent 3',5'-cyclic phosphodiesterase, sequence (O00408 whole entry): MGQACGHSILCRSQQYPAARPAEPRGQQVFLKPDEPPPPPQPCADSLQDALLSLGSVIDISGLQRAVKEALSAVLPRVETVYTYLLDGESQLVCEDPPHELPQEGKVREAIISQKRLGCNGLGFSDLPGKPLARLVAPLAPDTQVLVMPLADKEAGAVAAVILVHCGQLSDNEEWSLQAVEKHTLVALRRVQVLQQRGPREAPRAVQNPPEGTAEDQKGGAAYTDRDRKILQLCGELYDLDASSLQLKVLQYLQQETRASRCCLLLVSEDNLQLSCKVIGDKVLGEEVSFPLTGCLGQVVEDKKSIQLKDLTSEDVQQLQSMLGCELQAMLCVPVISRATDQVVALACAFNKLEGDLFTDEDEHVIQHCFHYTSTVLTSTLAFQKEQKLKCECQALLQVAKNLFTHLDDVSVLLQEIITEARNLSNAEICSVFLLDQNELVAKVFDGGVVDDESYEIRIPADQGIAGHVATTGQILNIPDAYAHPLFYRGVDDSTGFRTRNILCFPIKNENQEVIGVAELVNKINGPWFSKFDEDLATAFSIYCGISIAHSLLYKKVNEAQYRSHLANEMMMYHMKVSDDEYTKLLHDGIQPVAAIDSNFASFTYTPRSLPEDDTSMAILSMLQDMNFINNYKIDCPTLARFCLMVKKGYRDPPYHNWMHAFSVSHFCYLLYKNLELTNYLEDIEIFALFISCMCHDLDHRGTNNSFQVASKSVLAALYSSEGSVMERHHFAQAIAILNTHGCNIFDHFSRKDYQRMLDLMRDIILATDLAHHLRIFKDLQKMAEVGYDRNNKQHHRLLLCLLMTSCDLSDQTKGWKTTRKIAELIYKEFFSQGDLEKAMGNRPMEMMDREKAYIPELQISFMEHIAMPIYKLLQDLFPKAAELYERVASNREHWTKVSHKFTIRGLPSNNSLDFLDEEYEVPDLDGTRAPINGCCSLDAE

[21] = AUC (0 to t) in Sprague-Dawley rat at 5 mg/kg, po; format: ADME, organism-based; parameters: dose 5 mg/kg; conditions: in vivo
[22] = molecular target: High affinity cGMP-specific 3',5'-cyclic phosphodiesterase 9A (Homo sapiens, UniProt O76083); assay: Inhibition of PDE9A2 (181-506) (unknown origin) expressed in Escherichia coli BL21 assessed as using […] as substrate measured for 15 mins by liquid scintillation counting analysis
High affinity cGMP-specific 3',5'-cyclic phosphodiesterase 9A, sequence (O76083 whole entry): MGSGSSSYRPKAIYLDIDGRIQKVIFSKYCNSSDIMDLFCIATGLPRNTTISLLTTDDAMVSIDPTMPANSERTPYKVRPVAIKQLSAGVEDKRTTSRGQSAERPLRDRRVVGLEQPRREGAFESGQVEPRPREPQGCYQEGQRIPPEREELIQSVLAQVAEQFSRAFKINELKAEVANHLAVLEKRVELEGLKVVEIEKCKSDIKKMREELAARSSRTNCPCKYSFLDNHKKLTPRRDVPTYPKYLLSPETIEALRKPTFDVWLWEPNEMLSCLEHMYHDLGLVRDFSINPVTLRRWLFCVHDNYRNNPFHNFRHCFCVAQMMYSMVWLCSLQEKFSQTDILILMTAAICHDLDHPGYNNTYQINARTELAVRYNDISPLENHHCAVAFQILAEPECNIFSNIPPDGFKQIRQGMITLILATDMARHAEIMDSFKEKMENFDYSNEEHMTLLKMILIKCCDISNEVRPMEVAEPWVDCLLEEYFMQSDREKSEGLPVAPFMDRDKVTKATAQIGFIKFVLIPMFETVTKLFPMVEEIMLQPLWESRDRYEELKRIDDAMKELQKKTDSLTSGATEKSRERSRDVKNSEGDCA

[23] = Toxicity in dog assessed as emesis at 10 mg/kg, po; format: organism-based, Canis lupus familiaris; conditions: in vivo
[24] = Tmax in Sprague-Dawley rat at 5 mg/kg, po; format: ADME, organism-based; conditions: in vivo
Cytochrome P450 2D6 = Cytochrome P450 2D6 (Homo sapiens, UniProt P10635); assay: Inhibition of human hepatic CYP2D6; format: ADME, tissue-based, Liver
Cytochrome P450 2D6, sequence (P10635 whole entry): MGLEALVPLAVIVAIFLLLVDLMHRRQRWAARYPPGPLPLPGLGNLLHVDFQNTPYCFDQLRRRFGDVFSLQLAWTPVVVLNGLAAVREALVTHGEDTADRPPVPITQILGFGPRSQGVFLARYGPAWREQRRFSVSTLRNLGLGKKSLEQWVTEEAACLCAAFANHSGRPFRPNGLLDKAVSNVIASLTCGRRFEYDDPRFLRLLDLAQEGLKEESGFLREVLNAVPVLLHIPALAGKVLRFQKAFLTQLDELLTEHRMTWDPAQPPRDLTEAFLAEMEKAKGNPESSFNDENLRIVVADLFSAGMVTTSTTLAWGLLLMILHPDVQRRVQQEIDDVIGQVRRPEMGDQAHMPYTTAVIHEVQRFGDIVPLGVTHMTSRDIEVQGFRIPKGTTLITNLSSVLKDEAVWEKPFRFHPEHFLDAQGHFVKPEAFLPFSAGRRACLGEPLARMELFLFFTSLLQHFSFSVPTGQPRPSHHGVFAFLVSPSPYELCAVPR

Rattus norvegicus [25] = assay: Anti-idiopathic pulmonary fibrotic activity in bleomycin-induced Sprague-Dawley rat model assessed as reversal of enhanced pause at 10 mg/kg, po treated for 28 consecutive days relative to control; format: functional, organism-based
Rattus norvegicus [26] = assay: Anti-idiopathic pulmonary fibrotic activity in bleomycin-induced Sprague-Dawley rat model assessed as reversal of mid-expiratory flow at 10 mg/kg, po treated for 28 consecutive days relative to control; format: functional, organism-based
Cytochrome P450 1A2 = molecular target: T1, Cytochrome P450 1A2 (Homo sapiens, UniProt P05177); assay: Inhibition of human hepatic CYP1A2; format: ADME, tissue-based, Liver
T1 sequence (P05177 whole entry): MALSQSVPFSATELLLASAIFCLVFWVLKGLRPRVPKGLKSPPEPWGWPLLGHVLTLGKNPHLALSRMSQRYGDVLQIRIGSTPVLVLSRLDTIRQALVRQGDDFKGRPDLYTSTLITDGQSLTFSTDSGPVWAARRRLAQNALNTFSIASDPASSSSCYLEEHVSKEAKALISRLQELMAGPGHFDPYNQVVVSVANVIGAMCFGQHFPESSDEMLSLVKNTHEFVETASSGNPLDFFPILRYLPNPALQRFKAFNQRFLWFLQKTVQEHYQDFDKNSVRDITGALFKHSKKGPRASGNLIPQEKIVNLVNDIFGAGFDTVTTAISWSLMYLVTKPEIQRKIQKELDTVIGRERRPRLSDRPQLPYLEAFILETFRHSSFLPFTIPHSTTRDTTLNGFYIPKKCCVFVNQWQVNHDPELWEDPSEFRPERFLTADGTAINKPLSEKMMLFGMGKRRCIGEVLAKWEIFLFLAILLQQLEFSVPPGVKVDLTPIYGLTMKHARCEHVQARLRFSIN

[27] = Cmax in Sprague-Dawley rat at 10 mg/kg, po; format: ADME, organism-based; parameters: route oral, dose 10 mg/kg; conditions: in vivo
[28] = molecular target: cGMP-inhibited 3',5'-cyclic phosphodiesterase 3A (Homo sapiens, UniProt Q14432); assay: Inhibition of PDE3A (679-1087) (unknown origin) expressed in Escherichia coli BL21 assessed as using [3H]-cAMP as substrate measured for 15 mins by liquid scintillation counting analysis
cGMP-inhibited 3',5'-cyclic phosphodiesterase 3A, sequence (Q14432 whole entry): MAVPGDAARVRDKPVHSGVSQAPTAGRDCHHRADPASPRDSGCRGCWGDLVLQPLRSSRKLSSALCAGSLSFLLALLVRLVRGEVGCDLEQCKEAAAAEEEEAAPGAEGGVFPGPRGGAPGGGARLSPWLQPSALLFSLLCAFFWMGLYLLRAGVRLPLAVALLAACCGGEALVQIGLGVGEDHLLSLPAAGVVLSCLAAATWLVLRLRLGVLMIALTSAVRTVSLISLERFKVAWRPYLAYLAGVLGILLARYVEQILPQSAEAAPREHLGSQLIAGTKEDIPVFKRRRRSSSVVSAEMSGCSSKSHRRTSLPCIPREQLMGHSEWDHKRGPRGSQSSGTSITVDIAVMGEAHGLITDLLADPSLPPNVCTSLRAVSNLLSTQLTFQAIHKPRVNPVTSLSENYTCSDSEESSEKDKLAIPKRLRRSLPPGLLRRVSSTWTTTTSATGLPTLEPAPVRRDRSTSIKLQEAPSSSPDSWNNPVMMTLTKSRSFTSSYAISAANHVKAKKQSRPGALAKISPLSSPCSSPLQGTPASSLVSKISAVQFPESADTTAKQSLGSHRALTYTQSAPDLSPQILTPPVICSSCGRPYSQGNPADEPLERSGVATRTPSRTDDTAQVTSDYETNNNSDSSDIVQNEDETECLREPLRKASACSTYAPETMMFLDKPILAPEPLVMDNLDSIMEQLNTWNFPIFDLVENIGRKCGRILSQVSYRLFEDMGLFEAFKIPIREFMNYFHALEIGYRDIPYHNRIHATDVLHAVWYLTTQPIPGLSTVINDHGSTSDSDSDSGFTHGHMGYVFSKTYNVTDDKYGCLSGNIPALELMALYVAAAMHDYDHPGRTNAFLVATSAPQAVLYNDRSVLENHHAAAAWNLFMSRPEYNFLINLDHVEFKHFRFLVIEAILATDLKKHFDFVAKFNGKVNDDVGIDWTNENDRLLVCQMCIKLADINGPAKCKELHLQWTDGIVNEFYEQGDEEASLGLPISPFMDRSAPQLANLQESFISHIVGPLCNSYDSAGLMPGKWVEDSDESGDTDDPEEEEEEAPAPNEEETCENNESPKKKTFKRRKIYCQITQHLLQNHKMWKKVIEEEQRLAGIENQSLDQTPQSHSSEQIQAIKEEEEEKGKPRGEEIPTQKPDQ

[29] = molecular target: 3',5'-cyclic-AMP phosphodiesterase 4B (Homo sapiens, UniProt Q07343); assay: Inhibition of PDE4B2 (152-487) (unknown origin) expressed in Escherichia coli BL21 assessed as using [3H]-cAMP as substrate measured for 15 mins by liquid scintillation counting analysis
3',5'-cyclic-AMP phosphodiesterase 4B, sequence (Q07343 whole entry): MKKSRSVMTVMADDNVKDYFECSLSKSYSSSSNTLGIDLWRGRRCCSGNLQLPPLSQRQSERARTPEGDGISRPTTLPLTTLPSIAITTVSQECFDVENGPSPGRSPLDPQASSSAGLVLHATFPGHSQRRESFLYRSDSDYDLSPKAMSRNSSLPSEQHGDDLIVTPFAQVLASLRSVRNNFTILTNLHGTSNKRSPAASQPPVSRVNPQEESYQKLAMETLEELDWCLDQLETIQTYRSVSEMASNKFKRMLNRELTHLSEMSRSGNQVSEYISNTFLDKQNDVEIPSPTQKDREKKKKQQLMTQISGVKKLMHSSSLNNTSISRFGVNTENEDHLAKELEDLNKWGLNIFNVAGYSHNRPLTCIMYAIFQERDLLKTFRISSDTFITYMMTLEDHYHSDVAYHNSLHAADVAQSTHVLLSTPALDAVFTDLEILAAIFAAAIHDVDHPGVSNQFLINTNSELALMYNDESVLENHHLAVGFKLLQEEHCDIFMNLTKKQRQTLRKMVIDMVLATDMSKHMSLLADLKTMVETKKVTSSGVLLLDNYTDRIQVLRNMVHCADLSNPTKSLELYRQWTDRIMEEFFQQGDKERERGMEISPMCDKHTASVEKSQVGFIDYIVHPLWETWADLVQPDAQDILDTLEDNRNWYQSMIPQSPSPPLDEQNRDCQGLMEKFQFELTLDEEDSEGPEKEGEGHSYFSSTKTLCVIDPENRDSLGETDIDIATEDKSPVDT

COc1c(OCc2ccc(F)cc2)cc2oc3cc4c(c(OC/C=C/C(=O)O)c3c(=O)c2c1CC=C(C)C)C=CC(C)(C)O4
Activity [1]: Non-Toxic | Activity (A549 [2]): Dose-Dependent Effect | half-life [3]: 1.55 h | Activity (A549 [4]): Dose-Dependent Effect | Activity (Rattus norvegicus [5]): Active | Activity (Rattus norvegicus [6]): Active | IC50 [7]: > 40 µM | half-life [8]: 12.2 h | Cmax [9]: 3.85 µg/mL | inhibition in vivo at 10 mg/kg (Rattus norvegicus [10]): 100% | AUC(0-inf) [11]: 2.11 µg·h/mL | IC50 [12]: 0.71 µM | Activity (Rattus norvegicus [13]): Active | AUC(0-t) [14]: 2.09 µg·h/mL | Tmax [15]: 1 h | AUC(0-inf) [16]: 8.46 µg·h/mL | half-life [17]: 1.02 h | IC50 [18]: 0.093 µM | IC50 (Cytochrome P450 3A4): > 25 µM | Activity (A549 [19]): Dose-Dependent Effect | IC50 [20]: 0.94 µM | AUC(0-t) [21]: 8.42 µg·h/mL | IC50 [22]: > 10 µM | Activity [23]: Non-Toxic | Tmax [24]: 1 h | IC50 (Cytochrome P450 2D6): > 25 µM | Activity (Rattus norvegicus [25]): Active | Activity (Rattus norvegicus [26]): Active | IC50 (Cytochrome P450 1A2): > 25 µM | Cmax [27]: 1.07 µg/mL | IC50 [28]: > 10 µM | IC50 [29]: 0.14 µM
